According to patent US20230097658A1, “TUNABLE EXTENDED RELEASE HYDROGELS” (FRED HUTCHINSON CANCER RESEARCH CENTER, priority 2020, published 2023):
“Also recorded” adds a separate entry of the source.

Columns and labels:
human GB line = details: CXCR4 blocked; cited from earlier work
PBT-05 cells [1] = test: In vitro phagocytosis assay, PBT-05 co-culture with murine bone marrow derived macrophages (BMDM); format: cell-based, human; details: for contribution to tumor cell cytotoxicity when added to CD47 blockade: murine macrophage co-cultures, compared with CD47 blockade alone; for effect on viability of tumor cells in co-culture: polarizing agent without CD47mAb
Description: These cultures were challenged with combinations of macrophage checkpoint inhibitors (MCIs) and immune cell polarizing factors described by literature as capable of promoting an immune response against tumor cells. […] Compared to a media control, no combination of MCIs and polarizing factors caused significant cytotoxicity of PBT-05 cells cultured alone, confirming the observed cytotoxic effect is mediated by the macrophages, not the drugs themselves.
Murine monocytes were harvested and cultured from femurs of C57BL/6 mice using RPMI (Thermofisher, 11875093) containing 10% heat deactivated FBS and 100 ng/mL mCSF1 for 7 days. Mature macrophages from these cultures were later harvested for experiments. Human monocytes were isolated from human PBMCs (Bloodworks) and purified by EasySep monocyte depletion kit (StemCell, 19355). Monocytes were cultured in RPMI containing 10% heat deactivated FBS and 25 ng/mL human CSF1 for 10 days. 50 ng/mL IL-10 was added to the cultures at day 5 to induce M2 phenotypes. Mature macrophages were later harvested for use in experiments.
Monoclonal antibodies were purchased from Bioxcell (LEAF hCD47, BE0019) and Biolegend (LEAF hCD24mAb: 101810, MsIgG1: 400153). Phagocytosis assays were performed using the Basic Analyzer software on Essen Bio's Incucyte Zoom and Incucyte S3. 12 or 24 well plates were seeded 1:1 with GFP+ tumor lines and macrophages (murine/human) in fully supplemented Neuralcult plus various MCIs and immunomodulators described previously. Using the aforementioned definitions, the Incucyte calculated tumor cell counts based on the number of GFP+ nuclei in the wells over time.

PBT-05 cells [2] = test: In vitro chemotaxis assay (Incucyte transwell); format: cell-based, human; details: patient-derived pHGG line PBT-05
Description: Locally delivered therapeutics in the brain may need to account for the tendency of remnant brain tumor cells to migrate away from the tumor margins—potentially out of reach locally delivered therapeutics. Here, artificial gradients of chemokines were used to lure tumor cells and phagocytic cells in the brain towards a static “trap” of macrophage-enhancing therapeutics to facilitate tumor cell elimination. Referring to FIGS. 4A-4D, to model this, a patient-derived, pediatric high grade glioma (pHGG) line, PBT-05, was used. […] In vitro chemotaxis assays were carried out with PBT-05 against a panel of classical chemokines cited in literature as potentially being potent against migratory brain tumor cells. […] Without wishing to be bound by theory, it is believed that PBT-05's attraction towards hCCL2 gradients may be mediated by another receptor promiscuous with this chemokine. While this receptor was not identified, mCCL2 may not bind to it or produce the same downstream signaling. However, its chemotactic sensitivity to human and murine CXCL12 may be mediated by the canonical pathway.
Chemokines were purchased from: Sigma-Aldrich (CCL2: SRP3109) and RnD Systems (CXCL12: 350-NS/CF). Cell migration assays were performed using the chemotaxis module on the Incucyte Zoom 2016 and S3 (Essen Bio). Specialized 96 well transwell plates and reservoir dishes were supplied by the manufacturer (cat no's 4582, 4600). H2B-GFP+ PBT05 lines cells were cultured in the Neuralcult media+supplement without EGF/FGF to reduce background mobility caused by these growth factors. The Incucyte software was tailored to identify GFP+ nuclei to count the number of tumor cells on top and bottom of the transwell membranes.

[3] = target: CD47 on PBT-05 patient-derived pediatric high grade glioma cells (human) (UniProt Q08722); test: cell-based or functional assay
Sequence of UniProt Q08722 (Q08722 19-323): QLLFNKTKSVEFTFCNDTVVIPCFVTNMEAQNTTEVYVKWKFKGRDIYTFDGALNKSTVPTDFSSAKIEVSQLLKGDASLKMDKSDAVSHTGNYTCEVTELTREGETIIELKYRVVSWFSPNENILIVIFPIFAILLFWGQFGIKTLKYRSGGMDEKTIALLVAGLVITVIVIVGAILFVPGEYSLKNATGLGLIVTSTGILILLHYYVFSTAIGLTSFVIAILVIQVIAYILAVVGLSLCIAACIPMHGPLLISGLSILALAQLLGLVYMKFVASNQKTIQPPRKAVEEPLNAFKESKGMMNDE

c1cc(CN2CCCNCCNCCCNCC2)ccc1CN1CCCNCCNCCCNCC1 [AMD3100]
chemotaxis towards gradients of CXCL12 (human GB line): reduced chemotaxis

CCOCc1nc2c(N)nc3ccccc3c2n1CC(C)(C)O [R848, reference compound]
contribution to tumor cell cytotoxicity when added to CD47 blockade (PBT-05 cells [1]): did not significantly contribute to tumor cell cytotoxicity; also recorded: did not significantly increase cytotoxicity | effect on viability of tumor cells in co-culture (PBT-05 cells [1]): mild effects

CCL2: classical chemokine, purchased from Sigma-Aldrich (SRP3109)
chemotaxis of PBT-05 cells (chemotactic potency) (PBT-05 cells [2]): induced varying degrees of chemotaxis; also recorded: varying sensitivity

CXCL12: classical chemokine, ligand of CXCR4, purchased from RnD Systems (350-NS/CF)
chemotaxis of PBT-05 cells (chemotactic potency) (PBT-05 cells [2]): effective at eliciting chemotaxis; also recorded: induced varying degrees of chemotaxis; also recorded: effective at eliciting migration; also recorded: effectively chemoattract; also recorded: varying sensitivity

LEAF hCD47 monoclonal antibody (Bioxcell, BE0019)
phagocytosis of PBT-05 cells by murine and human macrophages in co-culture (tumor cell count); antibody concentration that was effective [3]: 1 µg/mL

hCCL2: human CCL2 chemokine
chemotaxis of PBT-05 cells (chemotactic potency) (PBT-05 cells [2]): greatest potency of the chemokines tested

mCCL2: murine version of the chemokine CCL2
chemotaxis of PBT-05 cells (chemotactic potency) (PBT-05 cells [2]): unresponsive

mCXCL12: murine CXCL12 chemokine
chemotaxis of PBT-05 cells (chemotactic potency) (PBT-05 cells [2]): lost some potency

B1: IFNg: polarizing agent (cytokine) that induces activated phenotypes in macrophages (protein, UniProt P01579 24-161, looked up)
Interferon gamma: QDPYVKEAENLKKYFNAGHSDVADNGTLFLGILKNWKEESDRKIMQSQIVSFYFKLFKNFKDDQSIQKSVETIKEDMNVKFFNSNKKKRDDFEKLTNYSVTDLNVQRKAIHELIQVMAELSPAAKTGKRKRSQMLFRG
contribution to tumor cell cytotoxicity when added to CD47 blockade (PBT-05 cells [1]): did not significantly contribute to tumor cell cytotoxicity; also recorded: did not significantly increase cytotoxicity | effect on viability of tumor cells in co-culture (PBT-05 cells [1]): mild effects
